Test results from ChEMBL document CHEMBL3112491, “3-(5-)-Amino-o-diarylisoxazoles: regioselective synthesis and antitubulin activity” (2014).

Tests used:
Format in all cases: functional
[1] = system: SR; assay: Growth inhibition of human SR cells after 48 hrs by sulforhodamine B assay
[2] = system: NCI-H226; assay: Growth inhibition of human NCI-H226 cells after 48 hrs by sulforhodamine B assay; details: NCI-H226, 48 h
[3] = Growth inhibition of human EKVX cells after 48 hrs by sulforhodamine B assay
[4] = system: CCRF-CEM; assay: Growth inhibition of human CCRF-CEM cells after 48 hrs by sulforhodamine B assay
[5] = Growth inhibition of human OVCAR5 cells after 48 hrs by sulforhodamine B assay; details: OVCAR-5, 48 h
[6] = system: TK-10; assay: Growth inhibition of human TK10 cells after 48 hrs by sulforhodamine B assay; details: TK-10, 48 h
[7] = system: NCI-H460; assay: Growth inhibition of human NCI-H460 cells after 48 hrs by sulforhodamine B assay; details: NCI-H460, 48 h
[8] = system: Paracentrotus lividus; assay: Microtubule destabilizing activity in sea urchin free-swimming blastula assessed as embryo spinning treated at 9 to 10 hrs post-fertilization measured after 0.15 to 15 hrs
[9] = system: SW-620; assay: Growth inhibition of human SW620 cells after 48 hrs by sulforhodamine B assay; details: SW-620, 48 h
[10] = Growth inhibition of human SF539 cells after 48 hrs by sulforhodamine B assay; details: SF-539, 48 h
[11] = system: IGROV-1; assay: Growth inhibition of human IGROV1 cells after 48 hrs by sulforhodamine B assay; details: IGROV-1, 48 h
[12] = system: LOX IMVI; assay: Growth inhibition of human LOXIMVI cells after 48 hrs by sulforhodamine B assay
[13] = system: COLO 205; assay: Growth inhibition of human COLO205 cells after 48 hrs by sulforhodamine B assay; details: COLO 205, 48 h
[14] = Growth inhibition of human RXF393 cells after 48 hrs by sulforhodamine B assay; details: RXF 393, 48 h
[15] = system: UACC-62; assay: Growth inhibition of human UACC62 cells after 48 hrs by sulforhodamine B assay; details: UACC-62, 48 h
[16] = system: HCT-116; assay: Growth inhibition of human HCT116 cells after 48 hrs by sulforhodamine B assay; details: HCT-116, 48 h
[17] = system: RPMI-8226; assay: Growth inhibition of human RPMI8226 cells after 48 hrs by sulforhodamine B assay; details: RPMI-8226, 48 h
[18] = system: HOP-62; assay: Growth inhibition of human HOP62 cells after 48 hrs by sulforhodamine B assay; details: HOP-62, 48 h
[19] = system: SNB-19; assay: Growth inhibition of human SNB19 cells after 48 hrs by sulforhodamine B assay; details: SNB-19, 48 h
[20] = system: KM12; assay: Growth inhibition of human KM12 cells after 48 hrs by sulforhodamine B assay; details: KM12, 48 h
[21] = system: OVCAR-3; assay: Growth inhibition of human OVCAR3 cells after 48 hrs by sulforhodamine B assay; details: OVCAR-3, 48 h
[22] = system: SK-MEL-28; assay: Growth inhibition of human SK-MEL-28 cells after 48 hrs by sulforhodamine B assay; details: SK-MEL-28, 48 h
[23] = system: A498; assay: Growth inhibition of human A498 cells after 48 hrs by sulforhodamine B assay; details: A498, 48 h
[24] = system: SF-295; assay: Growth inhibition of human SF295 cells after 48 hrs by sulforhodamine B assay; details: SF-295, 48 h
[25] = system: SN12C; assay: Growth inhibition of human SN12C cells after 48 hrs by sulforhodamine B assay
[26] = system: SK-OV-3; assay: Growth inhibition of human SKOV3 cells after 48 hrs by sulforhodamine B assay; details: SK-OV-3, 48 h
[27] = system: SF-268; assay: Growth inhibition of human SF268 cells after 48 hrs by sulforhodamine B assay; details: SF-268, 48 h
[28] = system: U-251; assay: Growth inhibition of human U251 cells after 48 hrs by sulforhodamine B assay; details: U-251, 48 h
[29] = system: OVCAR-8; assay: Growth inhibition of human OVCAR8 cells after 48 hrs by sulforhodamine B assay; details: OVCAR-8, 48 h
[30] = system: HT-29; assay: Growth inhibition of human HT-29 cells after 48 hrs by sulforhodamine B assay; details: HT-29, 48 h
[31] = Growth inhibition of human HCC2998 cells after 48 hrs by sulforhodamine B assay; details: HCC 2998, 48 h
[32] = Growth inhibition of human HOP92 cells after 48 hrs by sulforhodamine B assay; details: HOP-92, 48 h
[33] = system: NCI-H322M; assay: Growth inhibition of human NCI-H322M cells after 48 hrs by sulforhodamine B assay
[34] = system: ACHN; assay: Growth inhibition of human ACHN cells after 48 hrs by sulforhodamine B assay
[35] = system: Paracentrotus lividus; assay: Antimitotic activity in sea urchin fertilized egg assessed as cleavage arrest treated at 8 to 20 mins post-fertilization measured at 2.5 to 5.5 hrs post-fertilization
[36] = system: SK-MEL-2; assay: Growth inhibition of human SK-MEL-2 cells after 48 hrs by sulforhodamine B assay; details: SK-MEL-2, 48 h
[37] = system: Paracentrotus lividus; assay: Antimitotic activity in sea urchin fertilized egg assessed as cleavage alteration treated at 8 to 20 mins post-fertilization measured at 2.5 to 5.5 hrs post-fertilization
[38] = system: HL-60(TB); assay: Growth inhibition of human HL-60(TB) cells after 48 hrs by sulforhodamine B assay; details: HL-60, 48 h
[39] = system: HCT-15; assay: Growth inhibition of human HCT15 cells after 48 hrs by sulforhodamine B assay; details: HCT-15, 48 h
[40] = system: 786-0; assay: Growth inhibition of human 786-0 cells after 48 hrs by sulforhodamine B assay; details: 786-0, 48 h
[41] = system: MOLT-4; assay: Growth inhibition of human MOLT4 cells after 48 hrs by sulforhodamine B assay; details: MOLT-4, 48 h
[42] = Growth inhibition of human NCI-ADR-RES cells after 48 hrs by sulforhodamine B assay
[43] = system: NCI-H522; assay: Growth inhibition of human NCI-H522 cells after 48 hrs by sulforhodamine B assay; details: NCI-H522, 48 h
[44] = system: MDA-MB-468; assay: Growth inhibition of human MDA-MB-468 cells after 48 hrs by sulforhodamine B assay; details: MDA-MB-468, 48 h
[45] = system: MCF7; assay: Growth inhibition of human MCF7 cells after 48 hrs by sulforhodamine B assay; details: MCF7, 48 h
[46] = Growth inhibition of human UACC257 cells after 48 hrs by sulforhodamine B assay; details: UACC-257, 48 h
[47] = system: T47D; assay: Growth inhibition of human T47D cells after 48 hrs by sulforhodamine B assay
[48] = system: MDA-MB-231; assay: Growth inhibition of human MDA-MB-231 cells after 48 hrs by sulforhodamine B assay; details: MDA-MB-231, 48 h
[49] = system: A549; assay: Growth inhibition of human A549/ATCC cells after 48 hrs by sulforhodamine B assay; details: A549, 48 h
[50] = system: SNB-75; assay: Growth inhibition of human SNB75 cells after 48 hrs by sulforhodamine B assay; details: SNB-75, 48 h
[51] = Growth inhibition of human Hs 578T cells after 48 hrs by sulforhodamine B assay
[52] = system: PC-3; assay: Growth inhibition of human PC3 cells after 48 hrs by sulforhodamine B assay; details: PC-3, 48 h
[53] = system: MDA-MB-435; assay: Growth inhibition of human MDA-MB-435 cells after 48 hrs by sulforhodamine B assay; details: MDA-MB-435, 48 h
[54] = system: SK-MEL-5; assay: Growth inhibition of human SK-MEL-5 cells after 48 hrs by sulforhodamine B assay; details: SK-MEL-5, 48 h
[55] = system: BT-549; assay: Growth inhibition of human BT549 cells after 48 hrs by sulforhodamine B assay; details: BT-549, 48 h
[56] = system: M14; assay: Growth inhibition of human M14 cells after 48 hrs by sulforhodamine B assay; details: M14, 48 h
[57] = system: DU-145; assay: Growth inhibition of human DU145 cells after 48 hrs by sulforhodamine B assay; details: DU-145, 48 h
[58] = Growth inhibition of human UO31 cells after 48 hrs by sulforhodamine B assay; details: UO-31, 48 h
[59] = system: NCI-H23; assay: Growth inhibition of human NCI-H23 cells after 48 hrs by sulforhodamine B assay; details: NCI-H23, 48 h
[60] = Growth inhibition of human OVCAR4 cells after 48 hrs by sulforhodamine B assay; details: OVCAR-4, 48 h

COc1ccc(/C=C\c2cc(OC)c(OC)c(OC)c2)cc1O [COMBRETASTATIN A4]
GI50 [1]: 2.99 nM
GI50 [2]: 3.81 nM
GI50 [3]: 85.7 nM
GI50 [4]: 2.62 nM
GI50 [5]: 100 nM
GI50 [6]: 100 nM
GI50 [7]: 3.11 nM
EC [8]: 0.05 µM
GI50 [9]: 3.04 nM
GI50 [10]: 2.54 nM
GI50 [11]: 14.6 nM
GI50 [12]: 3.25 nM
GI50 [13]: 100 nM
GI50 [14]: 2.37 nM
GI50 [15]: 5.51 nM
GI50 [16]: 3.28 nM
GI50 [17]: 3.42 nM
GI50 [18]: 2.65 nM
GI50 [19]: 3.85 nM
GI50 [20]: 4.99 nM
GI50 [21]: 2.1 nM
GI50 [22]: 8.07 nM
GI50 [23]: 6.11 nM
GI50 [24]: 3.87 nM
GI50 [25]: 5.98 nM
GI50 [26]: 58.9 nM
GI50 [27]: 5.7 nM
GI50 [28]: 4.03 nM
GI50 [29]: 2.99 nM
GI50 [30]: 100 nM
GI50 [31]: 63.4 nM
GI50 [32]: 2.73 nM
GI50 [33]: 7.45 nM
GI50 [34]: 6.14 nM
EC [35]: 0.01 µM
GI50 [36]: 4.37 nM
EC [37]: 0.002 µM
GI50 [38]: 2.16 nM
GI50 [39]: 3.66 nM
GI50 [40]: 100 nM
GI50 [41]: 3.27 nM
GI50 [42]: 1 nM
GI50 [43]: 2.18 nM

COc1ccc(-c2c(-c3cc4c(c(OC)c3OC)OCO4)noc2N)cc1
GI50 [1]: 35.9 nM
GI50 [44]: 138 nM
GI50 [2]: 855 nM
GI50 [45]: 280 nM
GI50 [3]: 23600 nM
GI50 [5]: 2100 nM
GI50 [6]: 202 nM
GI50 [7]: 364 nM
EC [8]: 2 µM
GI50 [9]: 210 nM
GI50 [10]: 285 nM
GI50 [46]: 458 nM
GI50 [11]: 683 nM
GI50 [47]: 568 nM
GI50 [12]: 523 nM
GI50 [13]: 272 nM
GI50 [48]: 983 nM
GI50 [14]: 335 nM
GI50 [15]: 513 nM
GI50 [16]: 314 nM
GI50 [18]: 551 nM
GI50 [19]: 672 nM
GI50 [49]: 523 nM
GI50 [20]: 112 nM
GI50 [21]: 184 nM
GI50 [22]: 497 nM
GI50 [50]: 138 nM
GI50 [51]: 438 nM
GI50 [23]: 374 nM
GI50 [24]: 274 nM
GI50 [52]: 300 nM
GI50 [53]: 29.2 nM
GI50 [25]: 818 nM
GI50 [26]: 338 nM
GI50 [27]: 641 nM
GI50 [28]: 359 nM
GI50 [29]: 448 nM
GI50 [30]: 262 nM
GI50 [31]: 524 nM
GI50 [54]: 238 nM
GI50 [32]: 837 nM
GI50 [33]: 625 nM
GI50 [34]: 831 nM
GI50 [55]: 848 nM
EC [35]: 0.2 µM
GI50 [36]: 362 nM
GI50 [56]: 244 nM
EC [37]: 0.02 µM
GI50 [38]: 189 nM
GI50 [57]: 487 nM
GI50 [39]: 352 nM
GI50 [40]: 578 nM
GI50 [58]: 669 nM
GI50 [59]: 391 nM
GI50 [60]: 927 nM
GI50 [41]: 674 nM
GI50 [42]: 126 nM
GI50 [43]: 65.5 nM
